{
  "source": "paper PMC10489073",
  "about": "(Molecules, 2023)",
  "key": {"[1]": {"target": "T1, chymotrypsin-like (CT-L) activity of the 20S proteasome (Homo sapiens, UniProt P20618+P28074)", "T1 construct": "purchased R&D systems, Minneapolis, MN, USA", "assay": "20S proteasome inhibition assay (Proteasome-Glo Chymotrypsin-Like)", "assay_type": "biochemical", "conditions": "n ≥ 3, SD <20% of the mean, read-out: IC50 toward Chymotrypsin-like (CT-L)", "method": "The 20S proteasome inhibition assay was performed using the Proteasome-Glo™ Chymotrypsin-Like Assay kit (Promega, Alexandria, NSW, Australia). Suc-LLVY-aminoluciferin is a substate that can be cleaved by the 20S proteasome, release the […] (aminoluciferin) and allow the luciferase reaction to produce light. Gradient concentration of tested compounds and the purified 20S proteasome enzyme (R&D systems, Minneapolis, MN, USA) were successively added into a transparent 96-well plate and mixed thoroughly. Then, 50 µL of a […] reagent was added. Gently mix contents with a plate shaker at 300 to 500 rpm for 30 s. Incubate at room temperature for an hour. The luminescence was recorded via the Tecan Spark multimode microplate."}, "P3x63Ag8.653": {"system": "P3x63Ag8.653", "assay": "Cell proliferation analysis (MTT)", "assay_type": "cell-based, murine", "conditions": "Mus musculus, 48 h, read-out: Anti-proliferative activity IC50, P3x63Ag8.653", "method": "(§1) All tumor cell lines in the current research were grown in a certain growth medium containing 10% FBS and 1% (v/v/v) penicillin–streptomycin–amphotericin at 37 °C in 5% CO2. Cells were seeded into 96-well plates at a density of 8 × 10^3 cells per well for tumor adherent cells and 2 × 10^4 cells per well for tumor-suspended cells in a final volume of 100 μL. After 12 h, 100 μL of various concentrations of compounds was added to each and incubated for 48 h. A 0.5% MTT solution was added per well before the intermixture was incubated for another 4 h, and formazan formed from MTT was extracted by adding […] of DMSO rocking for 15 min. Absorbance was measured at 570 nm using a Spark multimode microplate from Tecan. The IC50 values were calculated according to the inhibition ratios."}, "A2780": {"system": "A2780", "assay": "Cell proliferation analysis (MTT)", "assay_type": "cell-based", "conditions": "Homo sapiens, 48 h, read-out: Anti-proliferative activity IC50, A2780", "method": "as §1"}, "ARP-1": {"system": "ARP-1", "assay": "Cell proliferation analysis (MTT)", "assay_type": "cell-based", "conditions": "48 h, read-out: Anti-proliferative activity IC50, ARP-1", "method": "as §1"}, "HCT116": {"system": "HCT116", "assay": "Cell proliferation analysis (MTT)", "assay_type": "cell-based", "conditions": "Homo sapiens, HCT-116, 48 h, read-out: Anti-proliferative activity IC50, HCT116", "method": "as §1"}, "HEL": {"system": "HEL", "assay": "Cell proliferation analysis (MTT)", "assay_type": "cell-based", "conditions": "Homo sapiens, 48 h, read-out: Anti-proliferative activity IC50, HEL", "method": "as §1"}, "HT-29": {"system": "HT-29", "assay": "Cell proliferation analysis (MTT)", "assay_type": "cell-based", "conditions": "Homo sapiens, 48 h, read-out: Anti-proliferative activity IC50, HT-29", "method": "as §1"}, "Hela": {"system": "Hela", "assay": "Cell proliferation analysis (MTT)", "assay_type": "cell-based", "conditions": "Homo sapiens, 48 h, read-out: Anti-proliferative activity IC50, Hela", "method": "as §1"}, "KG1": {"system": "KG1", "assay": "Cell proliferation analysis (MTT)", "assay_type": "cell-based", "conditions": "Homo sapiens, KG-1, 48 h, read-out: Anti-proliferative activity IC50, KG1", "method": "as §1"}, "MDA-MB-231": {"system": "MDA-MB-231", "assay": "Cell proliferation analysis (MTT)", "assay_type": "cell-based", "conditions": "Homo sapiens, 48 h, read-out: Anti-proliferative activity IC50, MDA-MB-231", "method": "as §1"}, "MM.1S": {"system": "MM.1S", "assay": "Cell proliferation analysis (MTT)", "assay_type": "cell-based", "conditions": "Homo sapiens, MM1.S, 48 h, read-out: Anti-proliferative activity IC50, MM.1S", "method": "as §1"}, "PC3": {"system": "PC3", "assay": "Cell proliferation analysis (MTT)", "assay_type": "cell-based", "conditions": "Homo sapiens, PC-3, 48 h, read-out: Anti-proliferative activity IC50, PC3", "method": "as §1"}, "RPMI-8266": {"system": "RPMI-8266", "assay": "Cell proliferation analysis (MTT)", "assay_type": "cell-based", "conditions": "RPMI8266, 48 h, read-out: Anti-proliferative activity IC50, RPMI-8266", "method": "as §1"}, "SP2": {"system": "SP2", "assay": "Cell proliferation analysis (MTT)", "assay_type": "cell-based", "conditions": "48 h, read-out: Anti-proliferative activity IC50, SP2", "method": "as §1"}, "U251": {"system": "U251", "assay": "Cell proliferation analysis (MTT)", "assay_type": "cell-based", "conditions": "Homo sapiens, U-251, 48 h, read-out: Anti-proliferative activity IC50, U251", "method": "as §1"}, "U266": {"system": "U266", "assay": "Cell proliferation analysis (MTT)", "assay_type": "cell-based", "conditions": "Homo sapiens, U-266, 48 h, read-out: Anti-proliferative activity IC50, U266", "method": "as §1"}, "HEK293": {"system": "HEK293", "assay": "Cell proliferation analysis (MTT), normal cells", "assay_type": "cell-based", "conditions": "Homo sapiens, non-malignant cell line, 48 h, read-out: Anti-proliferative activity IC50, HEK293", "method": "as §1"}, "HL-7702": {"system": "HL-7702", "assay": "Cell proliferation analysis (MTT), normal cells", "assay_type": "cell-based", "conditions": "Homo sapiens, L02, non-malignant cell line, 48 h, read-out: Anti-proliferative activity IC50, HL-7702", "method": "as §1"}, "[2]": {"system": "subcutaneous P3x63Ag8.653 tumor", "assay": "In vivo P3x63Ag8.653 tumor transplant model", "parameters": "species or system mice", "conditions": "0.05 mmol/kg oral, two weeks", "method": "The animal experiments were conducted under the guidelines of the “Regulations for the Administration of Affairs Concerning Experimental Animals” (revised 2017, State Council No. 676). For the P3x63Ag8.653 tumor development, male mice were subcutaneously injected with 200 μL murine P3x63Ag8.653 cells with a density of 1 × 10^7/mL. On the eighth day after injection, the transplanted mice were randomized into treatment and control groups. The tested compounds were administrated orally at the prescribed dose biweekly for two weeks. After two weeks of administration, mice were executed, and the tumor tissues were dissected and weighed. T/C was calculated according to the following formula: T/C = the mean RTV of the treated group/the mean RTV of the control group, where RTV is the relative tumor volume = Vt/V0 (Vt, the tumor volume measured at the end of treatment; V0, the tumor volume measured at the beginning of treatment)."}, "[3]": {"conditions": "high concentrations up to 1 mM; cited from earlier work"}},
  "data": [
    {"smiles": "CC(C)C[C@H](NC(=O)[C@@H](O)[C@H](N)Cc1ccccc1)C(=O)O", "note": "[Ubenimex]", "values": [
      {"measurement": "IC50", "setting": "[1]", "result": "> 10", "unit": "µM"},
      {"measurement": "IC50", "setting": "P3x63Ag8.653", "result": "> 200", "unit": "µM"},
      {"measurement": "IC50", "setting": "A2780", "result": "> 200", "unit": "µM"},
      {"measurement": "IC50", "setting": "ARP-1", "result": "> 200", "unit": "µM"},
      {"measurement": "IC50", "setting": "HCT116", "result": "> 200", "unit": "µM"},
      {"measurement": "IC50", "setting": "HEL", "result": "> 200", "unit": "µM"},
      {"measurement": "IC50", "setting": "HT-29", "result": "> 200", "unit": "µM"},
      {"measurement": "IC50", "setting": "Hela", "result": "> 200", "unit": "µM"},
      {"measurement": "IC50", "setting": "KG1", "result": "> 200", "unit": "µM"},
      {"measurement": "IC50", "setting": "MDA-MB-231", "result": "> 200", "unit": "µM"},
      {"measurement": "IC50", "setting": "MM.1S", "result": "> 200", "unit": "µM"},
      {"measurement": "IC50", "setting": "PC3", "result": "> 200", "unit": "µM"},
      {"measurement": "IC50", "setting": "RPMI-8266", "result": "> 200", "unit": "µM"},
      {"measurement": "IC50", "setting": "SP2", "result": "> 200", "unit": "µM"},
      {"measurement": "IC50", "setting": "U251", "result": "> 200", "unit": "µM"},
      {"measurement": "IC50", "setting": "U266", "result": "> 200", "unit": "µM"},
      {"measurement": "IC50", "setting": "HEK293", "result": "> 200", "unit": "µM"},
      {"measurement": "IC50", "setting": "HL-7702", "result": "> 200", "unit": "µM"},
      {"measurement": "anti-tumor activity", "setting": "[2]", "result": "moderate anti-tumor activity"},
      {"measurement": "anti-proliferation activity", "setting": "[3]", "result": "not apparent"}
    ]}
  ]
}
